From US20230414568A1, “PHARMACEUTICAL COMBINATION FOR MOOD DISORDERS” (INSTITUTO NACIONAL DE PSIQUIATRÍA "RAMÓN DE LA FUENTE MUÑIZ", priority 2018, published 2023) come the findings set out here.

The test system of test [1] is Swiss Webster mice. Briefly: Forced swim test (FST) in mice. The class given is in vivo. The following applies: for antidepressant-type effect, reduction of immobility time: acute single I.P. administration, ketamine 1.5 mg/kg, melatonin 4 and 16 mg/kg, alone or combined, vs control group. Here is the method:
(§1) Male mice of the “Swiss Webster” strain between 25 and 35 grams were used. All mice were placed in polyethylene boxes (8 mice per box) at a controlled temperature between 21-22° C., in a room with the dark light cycle reversed (12:12 hours, with artificial light from 10 PM to 10 A.M). The behavior evaluations of the mice were carried out between 10 AM and 3 PM. These mice were fed Purina® for rodents and water ad libitum.
A single intraperitoneal administration (I.P.) was performed in a volume of […] of body weight, as the following treatment scheme: […]
The forced swim test consists of two sessions. In the first session (pre-test), the animals are placed in a glass cylinder with the following dimensions: 20 cm in diameter by 30 cm in height. The glass cylinder is filled with water to a height of 15 cm, at 23-25° C. temperature. The mice are kept in the cylinder for 15 minutes and are naturally forced to swim. The second session takes place 24 hours after the first session and 30 minutes after administering the different pharmacological treatments. The mice are placed in the glass cylinder for 5 minutes and videotaped for further analysis. The immobility of mice in FST is defined as depressive-type behavior and is manifested by a minimal amount of movements made by the animal to stay afloat. The antidepressant effect of a drug is reflected in this test as a decrease in immobility time and an increase in swimming compared to control animals (administered with the vehicle).

For test [2], the system named is olfactory neuronal precursors. Briefly: Cell cluster formation of olfactory neuronal precursors. The format is cell-based, human. Here is the method: (§2) Cloned neuronal precursors obtained by exfoliation of the nasal cavity of a healthy subject without neuropsychiatric disease at the time of sample collection were used. These were grown according to the following process: • a) Solution 1 containing the culture medium characterized by containing one or more amino acids, one or more mineral salts, one or more vitamins, one or more growth factors of natural origin, and one or more antibiotics; • b) Solution 2 containing one or more pH regulators, and one or more calcium chelating agents, whose function is to moisten the cells that will later be propagated; • c) Solution 3 containing one or more substances that break proteins and that allow the separation between the cells by dispersing them; • d) Solution 4 containing one or more substances that allow the cells to be fixed to a glass support; • e) Solution 5 of cryopreservation containing one or more cryoprotective agents of neuronal origin cells; • f) Solution 6 of differentiation containing the maintenance solution without natural origin growth factors, and a cyclic nucleotide compound that induces differentiation; • g) Solution 7 containing one or more identifiers of specific protein molecules of the neuronal structure such that they allow to distinguish the neuronal cells from patients with neuropsychiatric diseases from healthy subjects; and • h) Solution 8 containing one or more fluorescent and/or enzymatic markers to recognize the identifiers of solution 7; up to passage 5 at a temperature of 37° C. in a 5% CO^2 atmosphere. Cells in passage 5 were incubated with increasing concentrations of ketamine or melatonin or the combination of both according to the following administration schedules:
(§3) • i. Incubation of the neuronal precursors with a vehicle (0) and ketamine for 12 hours (1), 24 hours (2), 48 hours (3) and 72 hours (4). • ii. Incubation of neuronal precursors with 10^−7 molar ketamine for 48 hours followed by incubation for 6 hours with 10^−7 molar ketamine and melatonin concentrations ranging from 10^−11 molar (7), from 10^−9 molar (8), 10^−7 molar (9) and 10^−5 molar (10), this evaluation was incorporated in a treatment with vehicle (0), with 10^−7 molar melatonin (5) and 10^−7 molar ketamine (6). Said treatment is outlined in FIG. 1. • iii. […]

In test [3] the test system is Swiss Webster mice. Kind of test: Open field test (OFT) in mice. The class given is in vivo. Here is the method:
as §1
In order to discard nonspecific actions of any of the treatments on locomotor activity, all the treatments studied in the TST and in the FST were analyzed in the OFT. Motor activity was measured in an apparatus formed by an opaque plexiglass box (40×30×20 cm), divided into 12 equal squares ([…]). The animal was placed in a corner of the cage and its behavior was videotaped for a period of 5 minutes. An observer, who was blinded to drug treatments, recorded the total number of times the animal crossed a square during the test. A count was considered when the animal fully crossed from one plaza to the next. Any change in the number of counts is considered as an alteration in locomotor activity. The test box was carefully cleaned after each session. To avoid changes in the behavior of the animals after the first experiment, the mice were used only once per test type.
The following groups of mice were treated under a single administration schedule: with a vehicle (26), a sub-effective dose of ketamine 1.5 mg/Kg (27), 3 mg/Kg (28), 10 mg/Kg (29), 20 mg/Kg (30), 30 mg/Kg (31), plus no effective dose of melatonin and 30 minutes later they were subjected to TST.
Under the same single administration scheme; (24, 7 and 0.5 h) before starting the trial, two other independent groups were administered with melatonin 4 mg/kg (33) and 16 mg/kg (34) plus no effective dose of ketamine, with their respective control (32). In other groups, melatonin 4 mg/kg +ketamine 1.5 mg/kg (36) and melatonin 16 mg/kg+ketamine 1.5 mg/kg (37) were administered, with their respective control (35).
The following groups of mice were treated under a triple administration scheme: with a vehicle (38), three administrations of melatonin 4 mg/Kg (39), three administrations of melatonin 16 mg/Kg (40), three administrations of ketamine 1.5 mg/Kg (41), three administrations of melatonin 4 mg/Kg+one administration of ketamine 1.5 mg/Kg (42) and three administrations of melatonin 16 mg/Kg+one administration of ketamine 1.5 mg/Kg (43) and 30 minutes later they were subjected to TST.
Evaluating the effect of melatonin in combination with ketamine on the ambulatory activity of mice in the open field test (OFT) all results are expressed as the mean±SEM of 8-12 animals. Comparisons were made using a one-way ANOVA analysis, followed by the Bonferroni test: * p<0.05, ** p<0.01, *** p<0.001.

Test [4] has as its system olfactory neuronal precursors. Briefly: Formation of spines in cloned olfactory neuronal precursors. The format is cell-based, human. The following applies: ketamine 10^−7 M. Here is the method:
as §2, §3
Once the cells were fixed, they were processed to stain them with specific markers that recognize the spines, which are made up of spinophilin and filamentous actin (FIG. 2A and 2B). […] The spines were counted in 10 fields chosen at random and normalized between the total cells number present in each field (Table 1). […]

In test [5] the test system is Swiss Webster mice. Briefly: Tail suspension test (TST) in mice. The class given is in vivo. The conditions noted are these: N 8.
The mark [6] stands for this setting: single administration, ketamine 1.5 mg/kg (group 27).
[7] abbreviates: single administration, ketamine 3 mg/kg (group 28).
Where [8] appears, read: single administration, ketamine 10 mg/kg (group 29).
The mark [9] stands for this setting: single administration, ketamine 20 mg/kg (group 30).
[10] abbreviates: single administration, ketamine 30 mg/kg (group 31).
Where [11] appears, read: triple administration, ketamine 1.5 mg/kg (group 41).
[12] abbreviates: single administration, melatonin 4 mg/kg (group 33).
[13] abbreviates: single administration, melatonin 16 mg/kg (group 34).
The mark [14] stands for this setting: triple administration, melatonin 4 mg/kg (group 39).
[15] abbreviates: triple administration, melatonin 16 mg/kg (group 40).

SMILES strings stand for the structures. Marks after values point to notes of the source that are not given here.

On to `CNCCC(Oc1ccc(C(F)(F)F)cc1)c1ccccc1` (centres unmarked) [Fluoxetine, fluoxetine], for which the Immobility time in the test on Swiss Webster mice [1] (fluoxetine 5 mg/kg I.P. (group 19)) came out at 49.76 ± 4.65 s; in the test on Swiss Webster mice [1] (fluoxetine 10 mg/kg I.P. (group 20)) it was 35.25 ± 3.88 s.

Regarding `CNC1(c2ccccc2Cl)CCCCC1=O` (centres unmarked) [Ketamine, 2-(2-chlorophenyl)-2-(methylamino) cyclohexanone], the cell cluster was found to be 7.12 ± 0.92% in test [2] (ketamine 10^−7 M pre-treatment 48 h, then vehicle (group 6)) and 3.1 ± 1.0% in test [2] (two vehicle administrations + one administration of ketamine 10^−7 M (group 13)). Also, the “ambulatory activity in OFT” value with Swiss Webster mice [3] (highest doses of ketamine (10 30 mg/kg), did not reach statistical significance, F(3,31)=2.99, p=0.047) is listed as “modified ambulatory activity”; in the test with Swiss Webster mice [3] (ketamine 1.5, 3.0, 10.0 and 20.0 mg/kg, F(2,23)=0.545, p=0.589), “did not produce changes in the ambulatory activity”. The “Count number/5 min” value is given as 40.12 ± 3.23 in the test on Swiss Webster mice [3] (setting [6]); 45.25 ± 4.29 with Swiss Webster mice [3] (setting [7]); 56.62 ± 4.36** in the test with Swiss Webster mice [3] (setting [8]); 56.00 ± 3.62** with Swiss Webster mice [3] (setting [9]); 60.12 ± 1.60*** with Swiss Webster mice [3] (setting [10]); 41.400 ± 3.97 in the test on Swiss Webster mice [3] (setting [11]). In addition, the “Stop number/5 min” value with Swiss Webster mice [3] (setting [6]) is listed as 28.62 ± 3.15; with Swiss Webster mice [3] (setting [7]), 28.25 ± 2.66; with Swiss Webster mice [3] (setting [8]) it was 45.25 ± 2.85**; in the test with Swiss Webster mice [3] (setting [9]) it was 45.50 ± 3.70; with Swiss Webster mice [3] (setting [10]) it was 45.37 ± 1.71; in the test on Swiss Webster mice [3] (setting [11]), 28.000 ± 2.53. For the same compound, the Spines in test [4] (incubation 12 h (group 1)) came to 10.25 ± 1.89%; in test [4] (incubation 24 h (group 2)) it was 22.65 ± 2.16%; in test [4] (incubation 48 h (group 3)) it was 45.31 ± 4.26%; in test [4] (incubation 72 h (group 4)), 45.31 ± 3.88%. Also, the “Count Number/5 min ± mean standard error” value in the test on Swiss Webster mice [5] (ketamine 1.5 mg/kg) is given as 40.12 ± 3.23; in the test on Swiss Webster mice [5] (ketamine 3 mg/kg) it was 45.25 ± 4.29; with Swiss Webster mice [5] (ketamine 10 mg/kg), 56.34 ± 4.36. The “antidepressant-type effect, reduction of immobility time” value in the test with Swiss Webster mice [1] was “ineffective”.

As for `COc1ccc2[nH]cc(CCNC(C)=O)c2c1` [Melatonin, N-[2-(5-methoxy-1H-indol-3-yl)ethyl] acetamide], the cell cluster in test [2] (triple administration: three administrations of melatonin 10^−7 M (group 12)) is recorded as 2.9 ± 0.9%; in test [2] (vehicle pre-treatment, then melatonin 10^−7 M (group 5)), 7.61 ± 0.59%. The “Count number/5 min” value with Swiss Webster mice [3] (setting [12]) was found to be 41.12 ± 2.48; in the test on Swiss Webster mice [3] (setting [13]) it was 38.50 ± 3.74; in the test with Swiss Webster mice [3] (setting [14]) it was 47.200 ± 5.20; in the test with Swiss Webster mice [3] (setting [15]) it was 42.625 ± 5.97. The “Stop number/5 min” value came to 25.37 ± 2.18 in the test with Swiss Webster mice [3] (setting [12]), 25.12 ± 2.36 in the test with Swiss Webster mice [3] (setting [13]), 29.111 ± 2.16 in the test on Swiss Webster mice [3] (setting [14]) and 26.375 ± 4.60 with Swiss Webster mice [3] (setting [15]). Besides, the “Count Number/5 min ± mean standard error” value in the test on Swiss Webster mice [5] (melatonin 4 mg/kg) was determined as 41.125 ± 2.489; in the test on Swiss Webster mice [5] (melatonin 16 mg/kg), 38.500 ± 3.746. Also, the “antidepressant-type effect, reduction of immobility time” value in the test on Swiss Webster mice [1] was “ineffective”. The Immobility time in the test with Swiss Webster mice [1] (melatonin 4 mg/kg I.P. (group 21)) amounted to 41.21 ± 7.29 s; with Swiss Webster mice [1] (melatonin 16 mg/kg I.P. (group 22)), 17.38 ± 2.51 s.
